Experiments:
Live Jurkat cells [1] = assay: DNA staining of live cells and cell cycle analysis using flow cytometry (Examples 42, 43); assay type: cell-based, human
Method: Live Jurkat cells are suspended at 5×10^5 cells/ml in each RPMI media with 10% FBS. Compound 19 is added to each of one mL cell suspensions at concentrations 5 μM, 10 μM, and 20 μM, and then incubated at 37° C. for 30 minutes while protected from light. Cells are run through the Becton Dickinson (BD) LSRII Flow Cytometer. Forward Scatter (FS) vs Side Scatter (SS) dual parameter plot is used to gate main cell population. Fluorescence is collected using […]: the 488 nm excitation laser with 780/60 bandpass emission filter, and using the 633 nm excitation laser with 780/60 bandpass emission filters, collecting 10,000 events at flow rate of ˜200 events/second. The data is further analyzed using MODFIT LT Flow Cytometry Modeling Software from Verity Software House, Inc. to look at ratio of G2/G1 and the % CV of G1 phase. […] Typical DNA content cell cycle histograms indicate G0G1 phase, S phase, and G2M phase, as obtained on the live cell gate, with all concentrations of the compound.
Live Jurkat cells suspended in RPMI media+10% FBS were stained with 5 μM, 10 μM, and 20 μM Compound 20 and analyzed with flow cytometry, as described in Example 42.

HeLa and U2OS cells = assay type: cell-based
Method: HeLa and U2OS cells were stained with DRAQ5, Hoechst 33342, mitoxantrone, and Compound 9 over a range of concentrations to evaluate the effect of the tested DNA stains on cell proliferation over time. HeLa and U2OS cells were plated at 3000 cells/well and allowed to recover overnight before proceeding with dye incubations. Cells were incubated with 0, 1, 5 or 10 μM Compound 9, Hoechst 33342, mitoxantrone, and DRAQ5 for 30 minutes at culture conditions in DPBS with glucose, washed and then placed back into media at culture conditions. Plates were stained with 100 nM YOYO-1 (Invitrogen Corporation) before being fixed and stained with 1:1000 Hoechst 33342 (total cell number) at 24, 48 and 72 hours post dye incubation. Cells were imaged with the ArrayScan VTI immediately following staining and fixation. Data obtained were from repetitions of 4 wells/condition with 10 images taken per well.

Live Jurkat cells [2] = assay: Comparison of DNA stains on cell viability (Example 44); assay type: cell-based; conditions: for % Dead Cells: ethidium homodimer-1
Method: Live Jurkat cells are suspended at 5×10^5 cells/ml in complete RPMI media with 10% FBS. Four aliquots of 10 ml each of the cell suspension are made. A final concentration of 5 μM Hoechst 33342 (Invitrogen Corporation) is added to one aliquot, a final concentration of 5 μM DRAQ5 (Biostatus Limited, UK) is added to one aliquot, a final concentration of 5 μM Compound 9 is added to one aliquot, and one aliquot remains untreated as a control. All four aliquots are placed in a 37° C. waterbath for 30 minutes in protected from light. After the incubation, all cell suspensions are centrifuged, the cells are pelleted and the supernatant discarded. To each aliquot, 5 ml media is added. Four culture flasks are prepared by adding 35 ml media to each. One 5 ml aliquot of cells is added to one flask for each on the four cell suspensions aliquots. The flasks are placed in a 37° C. incubator with 5% CO2 in the dark for 72 hours. Each flask of cells is then gently mixed and cell suspension is removed for testing. The cell concentration and image is performed using the Cellometer instrument from Nexcelom. Percentage and absolute cell counts of live and dead cells for each treatment are determined using the LIVE/DEAD Viability/Cytotoxicity Kit (Invitrogen Corporation, Carlsbad, Calif.) with COUNTBRIGHT Absolute Counting Beads (Invitrogen Corporation). This involves adding one ml cell suspension to a 12×75 mm test tube and adding 2 μl of a 50 μM calcein AM solution to identify living cells and 4 μl of a 2 mM ethidium homodimer-1 solution to identify dead cells. The cell suspension is mixed and incubated for 20 minutes at room temperature protected from light. After the end of the incubation, 50 μl of well mixed COUNTBRIGHT absolute counting beads are added to each test tube. Each sample is run through the Becton Dickinson (BD) LSRII Flow Cytometer. Forward Scatter (FS) versus Side Scatter (SS) dual parameter plot is used to gate main cell population, and a separate gate is made around the bead population. Fluorescence is collected using 488 nm excitation laser with 530/30 bandpass and 610/20 bandpass emission filters. Markers on a dual parameter plot of calcein fluorescence versus ethidium homodimer-1 fluorescence is used to obtain percent of cells which are living and dead, as well as number of cell events recorded. By using the COUNTBRIGHT absolute counting beads assay, the absolute number of living and dead cells is calculated by using the equation: A/B×C/D=concentration of cells/μL (A=number of cell events, B=number of bead events, C=assigned bead count, D=volume of the sample in μl).

Jurkat cells = assay: Comparison of DNA stains for staining live cells, post-sort viability and growth (Example 45); assay type: cell-based; conditions: 5 μM
Method: Jurkat cells were suspended at 5×10^5 cells/ml in complete RPMI media with 10% FBS and stained with either 5 μM Compound 9, 5 μM Hoechst 33342, or 5 μM DRAQ5 for 30 minutes at 37° C. protected from light. A control sample was also prepared with no dye treatment. Cells were washed and resuspended at 1×10^7 cells/ml in Complete RPMI+10% FBS media for sorting. Approximately 2 million Jurkat cells were sorted for each treatment by gating on the main cell population by scatter using a BD FACS Aria cell sorter. Cells were washed and plated at 1×10^5 cells/ml in complete media and grown at 37 C with 5% CO2. Cell Viability was assayed using the LIVE/DEAD Viability/Cytotoxicity Kit at 1, 2, and 3 days post sort (as described in Example 44). Brightfield images of cell growth after 8 days cell growth were collected. […] The percent of live cells decreased similarly in both Compound 9 and Hoechst 33342 treatments.

[3] = 20 μM, RPMI media+10% FBS, red 633 nm laser, 780/60 emission
[4] = 20 μM, RPMI media+10% FBS, blue 488 laser, 780/60 emission
[5] = 5 μM dye 30 min 37° C., then 72 hours culture

CN(C)CCNC(=O)CNc1ccc(N)c2c1C(=O)c1c(O)ccc(O)c1C2=O [Compound 20]
% CV of G1-phase (Live Jurkat cells [1]; [3]): 6.41%
G2/G1 ratio (Live Jurkat cells [1]; [3]): 1.84

CN(C)CCNC(=O)CNc1ccc(O)c2c1C(=O)c1c(N)ccc(O)c1C2=O [Compound 19]
% CV of G1-phase (Live Jurkat cells [1]; [4]): 8.0%
G2/G1 ratio (Live Jurkat cells [1]; [4]): 1.86
% CV of G1-phase (Live Jurkat cells [1]; [3]): 6.43%
G2/G1 ratio (Live Jurkat cells [1]; [3]): 1.83
% CV of G1-phase (Live Jurkat cells [1]; 5, 10, 20 μM, MODFIT analysis): < 8%

CN(C)CCNc1ccc(O)c2c1C(=O)c1c(O)ccc(NCCN(C)C)c1C2=O [DRAQ5]
membrane permeability indicated by YOYO-1 (HeLa and U2OS cells): high membrane permeability
% Dead Cells (Live Jurkat cells [2]; [5]): 95.7%

CCOc1ccc(-c2nc3ccc(-c4nc5ccc(N6CCN(C)CC6)cc5[nH]4)cc3[nH]2)cc1 [Hoechst 33342]
post-sort viability / cytotoxicity (Jurkat cells; 30 min 37° C., sorted, 1, 2 and 3 days post sort): very similar in post-sort viability, but less than non-stained control cells
cell growth after sort (Jurkat cells; day 3 and 8 days post sort): beginning to divide again
Cell Count (Cellometer) (Live Jurkat cells [2]; [5]): 2.6 × 10^5 cells/mL
Cell Count (Flow Cytommetry) (Live Jurkat cells [2]; [5]): 0.9 × 10^5 cells/mL
% Living Cells (Live Jurkat cells [2]; 5 μM dye 30 min 37° C., then 72 hours culture, calcein AM): 57.7%
% Dead Cells (Live Jurkat cells [2]; [5]): 39.3%
effect of treatment on cell viability (Live Jurkat cells [2]; 5 μM, 72 hours): maintained a majority of cells as living
